Test results published in EP1229025A1, “NOVEL QUINAZOLINE DERIVATIVES” (Japan Energy Corporation, priority 1999, dated 2001).

Columns and labels:
Format in all cases: cell-based
TNF-α production = TNF-α production inhibiting test using human PBMC (LPS stimulus, ELISA); conditions: LPS 10 ng/ml, 16 hours, ELISA of culture supernatants
Description: Example 145: TNF-α production inhibiting test using human PBMC (peripheral blood mononuclear cells)
Preparation of human PBMC
The blood of a healthy person was taken with a vacuum blood-collecting tube (Nipro neotube) and diluted up to two-fold with physiological saline (Otsuka Pharmaceuticals). To the diluted blood was added 6% dextran T-500 (prepared after dissolution in physiological saline (Otsuka Pharmaceuticals) and sterilization with an autoclave) so as to make a final concentration of 1%. The solution was subjected to tumble mixing and allowed to stand at room temperature for 30 minutes to precipitate the erythrocytes. The supernatant was collected and subjected to centrifugation at 20 °C and at 1,500 rpm for 10 minutes. The cells were suspended in 3 ml of RPMI1640 culture medium (Asahi Technogllas) and overlaid on the solution surface of 3 ml Lymphoprep (NYCOMED). Further, with 1.5 ml of RPMI1640 culture medium being added to the tube which had contained the cell suspension liquid, the cells attached to the tube, which had remained uncollected, were suspended for collection and overlaid on the Lymphoprep previously mentioned. This operation was repeated again. After centrifugation at 20 °C and at 2,000 rpm for 30 minutes, there was collected a fraction of peripheral blood mononuclear cells present in the boundary surface between the Lymphoprep and the RPMI1640 culture medium. The cells were washed twice with 10 ml RPMI1640 culture medium to remove the Lymphoprep and then suspended in a RPMI1640 culture medium added with 10% bovine fetal serum (IRVINE SCIENTIFIC), 100 U/ml penicillin and 100 µg/ml streptomycin (hereinafter referred to as cRPMI1640 culture medium). The number of the cells was measured by Tuerk dying, and the cells, after adjustment to 3 × 10^6 cells/ml, were planted in 100 µl/well on a 96-well plate (FALCON). The cells were cultured at 37 °C under 5%CO2 atmosphere for about 5 hours.
Induction of TNF-α production by LPS stimulus
LPS (E.coli 0111:B4, DIFCO), which had been prepared to 10 mg/ml with water and kept at -20, was diluted to 100 µg/ml with cRPMI1640 culture medium and subjected to sterile filtration. The 100 µg/ml LPS was diluted with cRPMI1640 culture medium to prepare 20 ng/ml LPS. A compound to be tested which was dissolved in DMSO at 1,000-fold concentration was diluted to 500-fold with cRPMI1640 culture medium containing 20 ng/ml LPS and added in 100 µl/well to the cells which had been planted on the previously mentioned 96-well plate (final concentration of LPS: 10 ng/ml). For use as the control group, the solutions were made by diluting DMSO of the same volume as in the test compounds with cRPMI1640 culture medium containing 20 ng/ml LPS, and they were added to the cells. These cells were cultured at 37 °C under 5%CO2 atmosphere for 16 hours.
Determination of TNF-α activity (ELISA method)
To the 96-well plate the mouse anti-human TNF-α antibody (prepared to 2 µg/ml with Coating buffer*^1) was added so as to make 100 µl/well and allowed to stand at 4 °C overnight. After 5-times washing with Wash buffer*^2 (300µl/well), the Blocking buffer*^3 was added to the solutions, which were allowed to stand 37 °C for 2 hours. The culture supernatants were diluted up to 5-fold in the plate (supernatant 20 µl being added to 80 µl of cRPMI1640 culture medium). Simultaneously, for using for a calibration curve, a series of dilution of recombinant human TNF-α was prepared arid allowed to stand 37 °C for 1 hour. After 5-times washing with Wash buffer (300 µl /well), biotinylated rabbit anti-human TNF-α antibody (prepared to 0.25 µg/ml with Antibody diluent*^4) was added so as to make 100 µl /well and allowed to stand at 37 °C for 1 hour. After 5-times washing with Wash buffer (300 µl /well), Streptavidin-Horseradish peroxidase(prepared to 1:4000 with Antibody diluent) was added to make 100 µl /well and allowed to stand at 37 °C for 15 minutes. […]

IL-4 production = IL-4 production inhibiting test in OVA-stimulated spleen cells of immunised mouse (ELISA); conditions: 72 h, spleen cells of OVA-immunised BALB/c-mouse, OVA 0.5 mg/ml, 3 days
Description: (§1) Example 146: IL-4 and IL-5 production inhibiting test
(§2) A 6-weeks-old BALB/c-mouse (Nippon Charles River) was bred preparatively for 1 week and given at the day 0 and day 14 intraperitoneal injection of 100 µl PBS to give immunity which PBS contained 0.1 mg/ml of Ovalbumin(OVA) and 40 mg/ml of aluminum hydroxide. At the day 21 the spleen was taken out from the mouse. The spleen was dissected with a pincette in cooled PBS, passed through a mesh and subjected to centrifugation at 4 °C at 1,500 rpm for 5 minutes. The cells was added with 5 ml of 0.2% NaCI to destroy erythrocytes, and then was made isotonic by adding 5 ml of 1.6% of NaCl. After centrifugation at 4 °C, 1,500 rpm for 5 minutes, the cells were washed twice with 10 ml ofRPMI1640 culture medium. The obtained spleen cells were suspended in cRPMI1640 medium, and the number of the cells was measured by Tuerk dying. After being adjusted to 1 × 10^7 cells/ml, the cells were planted in 100 µl/well on a 96-well plate (FALCON). The cells were cultured at 37 °C under 5% CO2 atmosphere for about 4 hours. OVA was prepared to 10 mg/ml with cRPMI1640 culture medium and subjected to sterile filtration. The 10 mg/ml OVA was diluted with cRPMI1640 culture medium to give 1 mg/ml OVA. A compound to be tested which was dissolved in DMSO in at 1,000-fold concentration was diluted up to 500-fold with cRPMI1640 culture medium containing 1 mg/ml OVA and added in 100 µl/well to the cells which had been planted on the previously mentioned 96-well plate (final concentration of OVA: 0.5 mg/ml). As the controls, the solutions were made by diluting DMSO of the same volume as with the test compounds with cRPMI1640 culture medium containing 1 mg/ml OVA, and they were added to the cells. These cells were cultured at 37 °C under 5%CO2 atmosphere for 3 days. IL-4 and IL-5 in the culture supernatants after 3 days were quantitatively determined by ELISA method. IL-4 and IL-5 were quantitatively determined using IL-4 Development Kit (Genzyme Techne) and mouse IL-5 MiniKit (ENDOGEN), respectively. The production inhibiting rates of each tested compound against IL-4 are shown in Table 22, those against IL-5 in Table 23.

IL-5 production = IL-5 production inhibiting test in OVA-stimulated spleen cells of immunised mouse (ELISA); conditions: 72 h, spleen cells of OVA-immunised BALB/c-mouse, OVA 0.5 mg/ml, 3 days
Description: as §1, §2

IC50 (TNF-α production) [nM]	IC50 (IL-4 production) [nM]	IC50 (IL-5 production) [nM]	Structure (SMILES)
80	10	200	O=[N+]([O-])c1cc2c(NCc3ccc4c(c3)OCO4)ncnc2cc1N1CCNCC1 [Example 31, 4-[3,4-(methylenedioxy)benzylamino]-6-nitro-7-(piperazin-1-yl)quinazoline]
200	100	1700	CCOC(=O)c1ccc(CNc2ncnc3cc(N4CCNCC4)c([N+](=O)[O-])cc23)cc1 [Example 129, 4-[(4-ethoxycarbonyl)benzylamino]-6-nitro-7-(piperazin-1-yl)quinazoline]
300	200	1400	CC(C)(C)c1cc(CNc2ncnc3cc(N4CCNCC4)c([N+](=O)[O-])cc23)cc(C(C)(C)C)c1O [Example 131, 4-[(3,5-di-tert-butyl-4-hydroxy)benzylamino]-6-nitro-7-(piperazin-1-yl)quinazoline]
